Experimental data taken from patent publication US20210251208A1, “COMPOSITION AND METHOD FOR ATTRACTING BED BUGS” (NATTARO LABS AB, priority 2016, published 2021).
Several values for one entry are separate records, joined by “and”; a condition that tells them apart may be missing. Equal values may be shown once. Entries after “also recorded” stand apart in the source; their conditions may differ.

What was measured:
[1] = system: bed bugs; test: Arena test of baits (52 cm arena, ten bed bugs, 30 minutes); type: in vivo; details: baits formulated using 3 wt % methylcellulose
Method: In these tests bed bugs were placed in an arena and allowed to freely move around while the movement patterns were recorded, including in particular the time that bed bugs spent in proximity to each of the three different stations, each station comprising a bait (test compound) or control.
The arena comprised a round (52 cm diameter) white painted metal tray with a 3.8 cm high rim. Evenly spaced half way between centrum and periphery three holes (3.4 cm diam) were bored. To prevent bed bug escape the rim was painted with Insect-a-Slip (#2871C Fluon, BioQuip Products, Inc. 2321 E, Chadwick St., Rancho Dominguez, Calif. 90220) resulting in a non-porous slippery, surface at the rim of the tray.
Three plastic containers (34 mm diam×7 cm high), each with a net covered hole (18 mm diam) at the bottom to allow airflow, were attached below the holes at the underside of the arena using clay dough. At the start of an experiment the compounds/baits and controls were placed one in each container below the arena. […]
Bed bugs, ten at a time, were introduced in separate vials into the middle of the arena and simultaneously video recording was started. […] At the end of the 30 minutes experimental period, the number of bed bugs in each container, and beneath or at the rim of the convex glass sheet above each container was scored. […] The final position was not recorded during early experiments. […]

[2] = system: bed bugs; test: Arena test of individual compounds vs. blend (40 cm arena, synergy); type: in vivo; details: individual compound 100 mg/l in gelatine, five females and five males, N = 10
Method: The following six tests were carried out: arena test of each of the five compounds a, b, e, f, and g individually and a test of the whole blend abefg. The procedure was the following.
Gelatine solutions (lures) each containing a total of 100 mg/l of either (a) E-2-hexenal, (b) E-2-octenal, (e) E-2-hexenoic acid, (f) 2-octenoic acid and (g) 2-hexanone or the combination of the five compounds abefg were prepared.
Five female and five male bedbugs were released into the centre of the arena in a dark room. The arena was lit with infrared light and after an initial 5 min acclimatization bed bugs were released in the middle of the arena and left for 30 minutes during which time their activity was video-recorded using an Infrared light camera coupled to Noldus Ethovision 15 program. At the end of the 30 minutes period, the bed bugs were manually collected and their positions recorded.
After each replicate, the arena was cleaned with 70% ethanol and the position of the compound and controls were shifted. Ten replicates were made with each of the individual compound lures and the whole blend totalling 60 tests comprising 600 bed bugs, 300 females and 300 males. […] This value was subtracted from the number of bed bugs attracted to each lure correcting for the random part in the attraction in each replicate. The corrected values were used to calculate the average number of bed bugs attracted to each individual lure chemical and to the lure blend.

[3] = Dynamic headspace collection of volatiles from bait, GC-MS; type: physicochemical; details: abefg 1:1:1:1:1 in gelatine 100 mg/l of each compound
Method: After collection of the enfleurage samples head-space collections were made from each container using a special lid into which an adsorbent plug was inserted. The head-space of all containers in a replicate was collected simultaneously under dark conditions (except the first samples of replicate one) using battery operated membrane pumps. The air-flow through each container was adjusted to 35-40 ml/min. The head-space samples were collected for 2 hours for replicate one to three after the first week, but was extended to 4-6 hours for replicate 4 & 5 and for all replicates and collections after the second week. This was done to secure more material as the first samples were very weak.
The samples were analyzed on a gas chromatograph (GC, Hewlett-Packard 6890 Series) equipped with a polar capillary column (Innowax; 30 m long, 0.25 mm i.d. and film thickness 0.25 μm Agilent Technologies USA) coupled to a mass spectrometer (Hewlett-Packard 5973 Mass Selective Detector). The injector temperature was 225° C. and the injection splitless. The GC temperature was programmed for 2 min at 40° C. followed by a gradual increase of 8°/min to 225° C., where the temperature was held steady for five min. Compounds were identified against the spectra and retention times of authentic reference compounds or in a few cases against the spectral libraries of ADAM and NIST2011.
One of the baits used in the Arena test was placed in a container and the dynamic headspace was collected as described in example 1 and analysed using Gas chromatography-Mass spectroscopy (GC-MS).

[4] = Stability / shelf-life of baits; type: physicochemical; details: ascorbic acid included in gelatine baits
From the text: The inclusion of ascorbic acid was thus subsequently discontinued.

Compound	attractive effect in (initial) Arena tests [1]	No. of bed bugs at test compound position at end of experiment (average, corrected for random attraction to controls) [2]	AMOUNT in headspace of bait ([3]; Sample no. 15:209-213) [nano gram/hour]	AMOUNT in headspace of bait ([3]; Sample no. 15:215-219) [nano gram/hour]	AMOUNT in headspace of bait ([3]; Sample no. 15:245.1-5) [nano gram/hour]	AMOUNT in headspace of bait ([3]; Sample no. 16:02.1-5) [nano gram/hour]	AMOUNT in headspace of bait ([3]; Sample no. 16.37-40) [nano gram/hour]	effect of anti-oxidant on baits / shelf-life of the composition [4]
CCC(=O)/C=C/C=O [4-Oxo-(E)-2-hexenal]	no attractive effect, rather as having a repulsive effect							
CCCCC(=O)/C=C/C=O [4-oxo-(E)-2-octenal, 4-Oxo-(E)-2-octenal]	no attractive effect, rather as having a repulsive effect							
CCC/C=C/C=O [(a) E-2-hexenal, (E)-2-hexenal]		slightly deterrent effect and −0.50						
CCCCC/C=C/C=O [(b) E-2-octenal, (E)-2-octenal]		1.35						
CCC/C=C/C(=O)O [(e) E-2-hexenoic acid, (E)-2-hexenoic acid]		0.55	0.2	3.1	0	1.4	0.08	
CCCCCC=CC(=O)O [(f) E-2-octenic acid, 2-Octenoic acid]		0.35						
CCCCC(C)=O [(g) 2-hexanone, 2-Hexanone]		1.35	429.1	310.3	168.2	76.1	402.0	
O=C1O[C@H]([C@@H](O)CO)C(O)=C1O [ascorbic acid]								degraded the baits and resulted in lower efficiency of the baits; also recorded: decreased the shelf-life of the composition
(E)-octenoic acid			0	0.8	0	0	0.01	
(Z)- & (E)-2-Hexenal			565.6	234.6	136.3	102.2	258.3	
(Z)- & (E)-2-octenal			914.5	477.6	438.5	405.2	349.9	
